This passage reports melting point results from patent publication US6518265B1, “1H-imidazopyridine derivatives” (Hokuriku Seiyaku Co., Ltd., priority 1998, dated 2003).

One may read the melting point as the temperature, or range, at which the solid turns liquid.

Molecules are shown by their SMILES. Counter-ions that a name gives are not always drawn.

`CNc1nc2ccccc2c2c1nc(-c1ccccc1)n2CCC1CCN(C(=O)OC(C)(C)C)CC1` (hydrate or solvate) [Example 95] returned a melting point of 161 to 162 °C.
`Clc1nc2ccccc2c2c1nc(-c1ccccc1)n2CC[C@@H]1CCCN1` (as salt: fumarate) (hydrate or solvate) [Example 134]: the melting point was 261 to 272 °C (dec.).
The same measure for `CNC(=S)N1CCC(CCn2c(-c3ccccc3)nc3c(Cl)nc4ccccc4c32)CC1` [Example 201, 4-[2-(4-Chloro-2-phenyl-1H-imidazo[4,5-c]quinolin-1-yl)ethyl]-N-methyl-1-piperidinecarbothioamide]: 215 to 220 °C (dec.); for `Clc1nc2c(c3c1nc(-c1ccccc1)n3CCC1CCNCC1)CCC2` (as salt: trifluoroacetate) [Example 136]: 225 to 232 °C (dec.).
The same measure for `CCOC(=O)N1CCC(CCn2cnc3c(Oc4ccccc4)nc4ccccc4c32)CC1` [Example 198]: 132 to 133 °C; for `Clc1nc2ccsc2c2c1nc(-c1ccccc1)n2CCC1CCNCC1` (as salt: trifluoroacetate) (hydrate or solvate) [Example 137]: 224 to 224.5 °C.
On to `CC(C)(C)OC(=O)N1CCC(CCn2c(-c3ccccc3)nc3c(Cl)nc4c(c32)CCCC4)CC1` [Example 33], for which the melting point was 215 to 218 °C (dec.).
`Clc1nc2c(c3c1nc(-c1ccccc1)n3CCC1CCNCC1)CCCC2` (as salt: trifluoroacetate) [Example 135]: the melting point is 215 to 221 °C (dec.).
`Cc1ccc(S(=O)(=O)N2CCC(CCn3cnc4c(Oc5ccccc5)nc5ccccc5c43)CC2)cc1` [Example 197] came in with a melting point of 201.5 to 202 °C.
On to `CC(C)(C)OC(=O)N1CCC(CCn2c(-c3ccccc3)nc3c(Cl)nc4ccsc4c32)CC1` [Example 35], for which the melting point lay within 199 to 200 °C.
